≈ marks a conversion by molar mass, not a printed value.
What was measured:
Bacillus subtilis (Bs) = assay: Minimum inhibitory concentration (MIC), bacteria in nutrient agar; type: cell-based, Bacillus subtilis ATCC 8473; conditions: 48 hours
Description: (§1) The minimum inhibitory concentration (MIC) for the compounds listed in Table I is determined for 9 bacteria, using nutrient agar, and 7 yeast and fungi, using malt yeast agar. A one percent solution of the test compound is prepared in a mixture of acetone and water.
(§2) Nutrient agar is prepared at pH 6.8, representing a neutral medium, and at pH 8.2, representing an alkaline medium. The nutrient agars are prepared by adding 23 g of nutrient agar to one liter of deionized water. In addition, the alkaline medium is prepared by adjusting a 0.04M solution of N-[tris-(hydroxymethyl)methyl]glycine buffered deionized water with concentrated sodium hydroxide to a pH of 8.5.
(§3) The test tubes containing the agar are cooled in a water bath until the temperature of the agar is 48° C. Then, an appropriate amount of the one percent solution of the test compound is added (except in the controls where no compound is added) to the respective test tubes so that the final concentrations are 500, 250, 100, 50, 25, 10, 5, 2.5, 1.0 and zero parts per million of the test compound in the agar, thus having a known concentration of test compound dispersed therein. The contents of the test tubes are then transferred to respective petri plates. After drying for 24 hours, the petri plates containing nutrient agar are inoculated with bacteria and those containing malt yeast agar are inoculated with yeast and fungi.
(§4) The inoculation with bacteria is accomplished by using the following procedure. Twenty-four hour-cultures of each of the bacteria are prepared by incubating the respective bacteria in tubes containing nutrient broth for 24 hours at 30° C. in a shaker. Dilutions of each of the 24 hour-cultures are made so that nine separate suspensions (one for each of the nine test bacteria) are made, each containing 10^8 colony forming units (CFU) per mL of suspension of a particular bacteria. Aliquots of 0.3 mL of each of the bacterial suspensions are used to fill the individual wells of Steer's Replicator. For each microbial suspension, 0.3 mL was used to fill three wells (i.e., three wells of 0.3 mL each) so that for the nine different bacteria, 27 wells are filled. The Steer's Replicator is then used to inoculate both the neutral and alkaline pH nutrient agar petri plates.
(§5) The inoculated petri plates are incubated at 30° C. for 48 hours and then read to determine if the test compound which is incorporated into the agar prevented growth of the respective bacteria.
(§6) Table II lists the bacteria, yeast and fungi used in the MIC test described above along with their respective American Type Culture Collection (ATCC) identification numbers.
(§7) In Tables III and IV, the MIC values of the compounds described in Table I as compared to the MIC of a standard commercial preservative (with 1-(3-chloroallyl)-3,5,7-triaza-1-azoniaadamantane chloride as the active agent and referred to in Tables III and IV as "STANDARD I") are set forth for the bacteria organisms and yeast/fungi organisms which are listed in Table II.

[1] = system: Enterobacter aerogenes (Ea); assay: as above; type: cell-based, Enterobacter aerogenes ATCC 13048; conditions: Klebsiella aerogenes, 48 hours
Description: as §1, §2, §3, §4, §5, §6, §7

Escherichia coli (Ec) = assay: as above; type: cell-based, Escherichia coli ATCC 11229; conditions: 48 hours
Description: as §1, §2, §3, §4, §5, §6, §7

[2] = system: Klebsiella pneumoniae (Kp); assay: as above; type: cell-based, Klebsiella pneumoniae ATCC 8308; conditions: 48 hours
Description: as §1, §2, §3, §4, §5, §6, §7

Proteus vulgaris (Pv) = assay: as above; type: cell-based, Proteus vulgaris ATCC 881; conditions: 48 hours
Description: as §1, §2, §3, §4, §5, §6, §7

[3] = system: Pseudomonas aeruginosa (PRD-10); assay: as above; type: cell-based, Pseudomonas aeruginosa ATCC 15442; conditions: 48 hours
Description: as §1, §2, §3, §4, §5, §6, §7

[4] = system: Salmonella choleraesuis (Sc); assay: as above; type: cell-based, Salmonella choleraesuis ATCC 10708; conditions: Salmonella enterica, 48 hours
Description: as §1, §2, §3, §4, §5, §6, §7

[5] = system: Staphylococcus aureus (Sa); assay: as above; type: cell-based, Staphylococcus aureus ATCC 6538; conditions: 48 hours
Description: as §1, §2, §3, §4, §5, §6, §7

Aspergillus niger (An) = assay: Minimum inhibitory concentration (MIC), yeast/fungi in malt yeast agar; type: cell-based, Aspergillus niger ATCC 16404; conditions: 30° C., 72 hours for fungi
Description: as §1
(§8) Malt yeast agar is prepared by adding 3 g yeast extract and 45 g malt agar per liter of deionized water. The specific agar is dispensed in 30 mL aliquots into 25×200 mm test tubes, capped and autoclaved for 15 minutes at 115° C.
as §3
(§9) The inoculation with the yeast and fungi is accomplished as follows. Cultures of yeast and fungi are incubated for seven days on malt yeast agar at 30° C. These cultures are used to prepare suspensions by the following procedure. A suspension of each organism is prepared by adding 10 mL of sterile saline and 10 microliters of octylphenoxy polyethoxy ethanol to the agar slant of yeast or fungi. The sterile saline/octylphenoxy polyethoxy ethanol solution is then agitated with a sterile swab to suspend the microorganism grown on the slant. Each resulting suspension is diluted into sterile saline (1 part suspension to 9 parts sterile saline). Aliquots of these dilutions are placed in individual wells of Steer's Replicator and petri plates inoculated as previously described. The petri plates are incubated at 30° C. and read after 48 hours for yeast and 72 hours for fungi.
as §6, §7

Candida albicans (Ca) = assay: as above; type: cell-based, Candida albicans ATCC 10231; conditions: 30° C., 48 hours for yeast
Description: as §1, §8, §3, §9, §6, §7

[6] = system: Penicillium chrysogenum (Pc); assay: as above; type: cell-based, Penicillium chrysogenum ATCC 9480; conditions: 30° C., 72 hours for fungi
Description: as §1, §8, §3, §9, §6, §7

[7] = system: Saccharomyces cerevisiae (Sc); assay: as above; type: cell-based, Saccharomyces cerevisiae ATCC 4105; conditions: 30° C., 48 hours for yeast
Description: as §1, §8, §3, §9, §6, §7

Trichoderma viride (Tv) = assay: as above; type: cell-based, Trichoderma viride ATCC 8678; conditions: 30° C., 72 hours for fungi
Description: as §1, §8, §3, §9, §6, §7

[8] = system: Aureobasidium pullulan (Ap); assay: as above; type: cell-based, Aureobasidium pullulan ATCC 16622; conditions: 30° C., read after 48 hours for yeast and 72 hours for fungi
Description: as §1, §8, §3, §9, §6, §7

Fusarium oxysporum (Fo) = assay: as above; type: cell-based, Fusarium oxysporum ATCC 48112; conditions: 30° C., 72 hours for fungi
Description: as §1, §8, §3, §9, §6, §7

Compound N#CSCSc1nnnn1-c1ccc(Br)cc1 [IV, 1-(4-Bromophenyl)-5-thiomethylthiocyanato-1H-tetrazole] has an MIC (Bacillus subtilis (Bs); nutrient agar pH 6.8, 30° C.) of under 10 µg/mL, an MIC (Bacillus subtilis (Bs); nutrient agar pH 8.2, 30° C.) of 25 µg/mL (≈ 76.2 µM) and an MIC ([1]; nutrient agar pH 6.8, 30° C.) of 500 µg/mL (≈ 1520 µM). The MIC ([1]; nutrient agar pH 8.2, 30° C.) was 500 µg/mL (≈ 1520 µM), the MIC (Escherichia coli (Ec); nutrient agar pH 6.8, 30° C.) was 500 µg/mL (≈ 1520 µM) and the MIC (Escherichia coli (Ec); nutrient agar pH 8.2, 30° C.) was 500 µg/mL (≈ 1520 µM). For the same compound, the MIC ([2]; nutrient agar pH 6.8, 30° C.) was 500 µg/mL (≈ 1520 µM), the MIC ([2]; nutrient agar pH 8.2, 30° C.) was 500 µg/mL (≈ 1520 µM) and the MIC (Proteus vulgaris (Pv); nutrient agar pH 6.8, 30° C.) was 500 µg/mL (≈ 1520 µM). For the same compound, the MIC (Proteus vulgaris (Pv); nutrient agar pH 8.2, 30° C.) was 500 µg/mL (≈ 1520 µM), the MIC ([3]; nutrient agar pH 6.8, 30° C.) was 500 µg/mL (≈ 1520 µM) and the MIC ([3]; nutrient agar pH 8.2, 30° C.) was 500 µg/mL (≈ 1520 µM). For the same compound, the MIC ([4]; nutrient agar pH 6.8, 30° C.) was 500 µg/mL (≈ 1520 µM), the MIC ([4]; nutrient agar pH 8.2, 30° C.) was 500 µg/mL (≈ 1520 µM) and the MIC ([5]; nutrient agar pH 6.8, 30° C.) was 500 µg/mL (≈ 1520 µM). For the same compound, the MIC ([5]; nutrient agar pH 8.2, 30° C.) was 500 µg/mL (≈ 1520 µM), the MIC (Aspergillus niger (An)) was under 10 µg/mL and the MIC (Candida albicans (Ca)) was 25 µg/mL (≈ 76.2 µM). It also gave an MIC [6] of under 10 µg/mL, an MIC [7] of under 10 µg/mL and an MIC (Trichoderma viride (Tv)) of 25 µg/mL (≈ 76.2 µM). The MIC [8] was under 10 µg/mL and the MIC (Fusarium oxysporum (Fo)) was under 10 µg/mL.

Work on CC(C)(C)c1ccc(-n2nnnc2SCSC#N)cc1 [IX, 1-(tertiary-Butylphenyl)-5-thiomethylthiocyanato-1H-tetrazole] yielded an MIC (Bacillus subtilis (Bs); nutrient agar pH 6.8, 30° C.) of 25 µg/mL (≈ 81.9 µM), an MIC (Bacillus subtilis (Bs); nutrient agar pH 8.2, 30° C.) of 50 µg/mL (≈ 164 µM) and an MIC ([1]; nutrient agar pH 6.8, 30° C.) of 500 µg/mL (≈ 1640 µM). For the same compound, the MIC ([1]; nutrient agar pH 8.2, 30° C.) was 500 µg/mL (≈ 1640 µM), the MIC (Escherichia coli (Ec); nutrient agar pH 6.8, 30° C.) was 50 µg/mL (≈ 164 µM) and the MIC (Escherichia coli (Ec); nutrient agar pH 8.2, 30° C.) was 250 µg/mL (≈ 819 µM). It also gave an MIC ([2]; nutrient agar pH 6.8, 30° C.) of 250 µg/mL (≈ 819 µM), an MIC ([2]; nutrient agar pH 8.2, 30° C.) of 100 µg/mL (≈ 327 µM) and an MIC (Proteus vulgaris (Pv); nutrient agar pH 6.8, 30° C.) of 250 µg/mL (≈ 819 µM). The MIC (Proteus vulgaris (Pv); nutrient agar pH 8.2, 30° C.) was 100 µg/mL (≈ 327 µM), the MIC ([3]; nutrient agar pH 6.8, 30° C.) was 500 µg/mL (≈ 1640 µM) and the MIC ([3]; nutrient agar pH 8.2, 30° C.) was 500 µg/mL (≈ 1640 µM). For the same compound, the MIC ([4]; nutrient agar pH 6.8, 30° C.) was 50 µg/mL (≈ 164 µM), the MIC ([4]; nutrient agar pH 8.2, 30° C.) was 100 µg/mL (≈ 327 µM) and the MIC ([5]; nutrient agar pH 6.8, 30° C.) was 50 µg/mL (≈ 164 µM). The MIC ([5]; nutrient agar pH 8.2, 30° C.) was 50 µg/mL (≈ 164 µM), the MIC (Aspergillus niger (An)) was 5 µg/mL (≈ 16.4 µM) and the MIC (Candida albicans (Ca)) was 100 µg/mL (≈ 327 µM). It also gave an MIC [6] of 2.5 µg/mL (≈ 8.19 µM), an MIC [7] of 10 µg/mL (≈ 32.7 µM) and an MIC (Trichoderma viride (Tv)) of 100 µg/mL (≈ 327 µM). The MIC [8] was 2.5 µg/mL (≈ 8.19 µM) and the MIC (Fusarium oxysporum (Fo)) was 25 µg/mL (≈ 81.9 µM).

Work on N#CSCSc1nnnn1-c1ccc(F)cc1 [V, 1-(4-Fluorophenyl)-5-thiomethylthiocyanato-1H-tetrazole] yielded an MIC (Bacillus subtilis (Bs); nutrient agar pH 6.8, 30° C.) of under 10 µg/mL, an MIC (Bacillus subtilis (Bs); nutrient agar pH 8.2, 30° C.) of 50 µg/mL (≈ 187 µM) and an MIC ([1]; nutrient agar pH 6.8, 30° C.) of 250 µg/mL (≈ 935 µM). It also gave an MIC ([1]; nutrient agar pH 8.2, 30° C.) of 500 µg/mL (≈ 1870 µM), an MIC (Escherichia coli (Ec); nutrient agar pH 6.8, 30° C.) of 100 µg/mL (≈ 374 µM) and an MIC (Escherichia coli (Ec); nutrient agar pH 8.2, 30° C.) of 500 µg/mL (≈ 1870 µM). For the same compound, the MIC ([2]; nutrient agar pH 6.8, 30° C.) was 100 µg/mL (≈ 374 µM), the MIC ([2]; nutrient agar pH 8.2, 30° C.) was 250 µg/mL (≈ 935 µM) and the MIC (Proteus vulgaris (Pv); nutrient agar pH 6.8, 30° C.) was 50 µg/mL (≈ 187 µM). The MIC (Proteus vulgaris (Pv); nutrient agar pH 8.2, 30° C.) was 250 µg/mL (≈ 935 µM), the MIC ([3]; nutrient agar pH 6.8, 30° C.) was 50 µg/mL (≈ 187 µM) and the MIC ([3]; nutrient agar pH 8.2, 30° C.) was 100 µg/mL (≈ 374 µM). It also gave an MIC ([4]; nutrient agar pH 6.8, 30° C.) of 100 µg/mL (≈ 374 µM), an MIC ([4]; nutrient agar pH 8.2, 30° C.) of 250 µg/mL (≈ 935 µM) and an MIC ([5]; nutrient agar pH 6.8, 30° C.) of 25 µg/mL (≈ 93.5 µM). For the same compound, the MIC ([5]; nutrient agar pH 8.2, 30° C.) was 50 µg/mL (≈ 187 µM), the MIC (Aspergillus niger (An)) was 5 µg/mL (≈ 18.7 µM) and the MIC (Candida albicans (Ca)) was 25 µg/mL (≈ 93.5 µM). The MIC [6] was 2.5 µg/mL (≈ 9.35 µM), the MIC [7] was 5 µg/mL (≈ 18.7 µM) and the MIC (Trichoderma viride (Tv)) was 25 µg/mL (≈ 93.5 µM). For the same compound, the MIC [8] was 2.5 µg/mL (≈ 9.35 µM) and the MIC (Fusarium oxysporum (Fo)) was 5 µg/mL (≈ 18.7 µM).

Reference: patent US5455222A, “1-substituted-5-thiomethylthiocyanato-1H-tetrazoles, compositions containing them and their use as antimicrobial and marine antifouling agents” (The Dow Chemical Company, priority 1994, dated 1995)
